Experimental data as given in paper PMC8933826 (EBioMedicine, 2022).
pKd: −log10 of the molar value.

Assays:
Tet(X4) = Tet(X4) (Escherichia coli, UniProt A0A3T0V9Y5); test: biolayer interferometry; format: binding
Tet(X3) = test: biolayer interferometry; format: binding, Acinetobacter baumannii

Tet(X4), sequence (A0A3T0V9Y5 1-385): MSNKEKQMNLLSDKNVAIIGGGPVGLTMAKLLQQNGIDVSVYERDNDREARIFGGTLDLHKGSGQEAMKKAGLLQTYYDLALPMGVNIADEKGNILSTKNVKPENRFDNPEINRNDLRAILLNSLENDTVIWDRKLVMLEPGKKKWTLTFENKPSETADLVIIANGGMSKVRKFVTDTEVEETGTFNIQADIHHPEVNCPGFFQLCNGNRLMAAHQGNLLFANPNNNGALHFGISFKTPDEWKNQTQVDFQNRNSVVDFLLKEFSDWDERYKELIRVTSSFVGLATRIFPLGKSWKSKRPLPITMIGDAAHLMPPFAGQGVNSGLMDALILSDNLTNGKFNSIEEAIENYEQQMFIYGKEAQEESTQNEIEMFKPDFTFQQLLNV

`CC1=CC(=O)c2c(O)cccc2C1=O` [plumbagin] gave a pKd (Tet(X4)) of 2.80 and a pKd (Tet(X3)) of 3.70.
